The results in this text go back to PMC5418314, “First-in-human phase I study of SOR-C13, a TRPV6 calcium channel inhibitor, in patients with advanced solid tumors” (Investigational New Drugs, 2017).

For data set [1], the system named is voltage-gated sodium channels. The data set is described as follows: voltage-gated sodium channel activity. In kind it is biochemical.
Data set [2] deals with voltage-gated calcium channels. The experiment in a line: voltage-gated calcium channel activity. In kind it is biochemical.
The nature of data set [3]: GLP toxicology study, daily IV bolus for 28 days, rat. It is filed as in vivo. As for the experimental part: Anatomical pathology provided a No Observable Adverse Effect Level (NOAEL) of 200 mg/kg/day for rats. […] With results indicating antitumor activity in animal studies, a small toxicological footprint, a novel oncology target and a mechanism of action supported by the literature, SOR-C13 was formulated for intravenous injection (IV) for clinical evaluation. Here we present results of the ‘first-in-human’, Phase I clinical study evaluating SOR-C13 in adults with advanced solid tumors of epithelial origin refractory to all standard-of-care treatments.

Data set [4] relates to voltage-gated potassium channels. The data set is described as follows: voltage-gated potassium channel activity. It is filed as biochemical.

Ends that are not written are not given here.

Regarding KEFLHPSKVDLPR [SOR-C13], the “modulation of channel activity” value in data set [1] is on record as “no modulation of channel activity”. In addition, in data set [2], the “modulation of channel activity” value was “no modulation of channel activity”. Moreover, in data set [3], the antigenicity entry was “no antigenicity”, the cardiovascular toxicity entry is “no cardiovascular toxicity” and the toxicity result is given as “minimal toxicity”. For the same sequence, the “modulation of channel activity” value in data set [4] is reported as “no modulation of channel activity”.
